Experimental data published in ChEMBL document CHEMBL4507319 (2021).

How the values were obtained:
[1] = target: Serine/threonine-protein kinase 25 (Homo sapiens) (UniProt O00506); test: STK25(h) Eurofins kinase panel; settings: Compound concentration 1.0 uM
[2] = target: T1, Serine/threonine-protein kinase ULK2 (Homo sapiens) (UniProt Q8IYT8); test: ULK2(h) Eurofins kinase panel; settings: Compound concentration 1.0 uM
T1 sequence (whole entry): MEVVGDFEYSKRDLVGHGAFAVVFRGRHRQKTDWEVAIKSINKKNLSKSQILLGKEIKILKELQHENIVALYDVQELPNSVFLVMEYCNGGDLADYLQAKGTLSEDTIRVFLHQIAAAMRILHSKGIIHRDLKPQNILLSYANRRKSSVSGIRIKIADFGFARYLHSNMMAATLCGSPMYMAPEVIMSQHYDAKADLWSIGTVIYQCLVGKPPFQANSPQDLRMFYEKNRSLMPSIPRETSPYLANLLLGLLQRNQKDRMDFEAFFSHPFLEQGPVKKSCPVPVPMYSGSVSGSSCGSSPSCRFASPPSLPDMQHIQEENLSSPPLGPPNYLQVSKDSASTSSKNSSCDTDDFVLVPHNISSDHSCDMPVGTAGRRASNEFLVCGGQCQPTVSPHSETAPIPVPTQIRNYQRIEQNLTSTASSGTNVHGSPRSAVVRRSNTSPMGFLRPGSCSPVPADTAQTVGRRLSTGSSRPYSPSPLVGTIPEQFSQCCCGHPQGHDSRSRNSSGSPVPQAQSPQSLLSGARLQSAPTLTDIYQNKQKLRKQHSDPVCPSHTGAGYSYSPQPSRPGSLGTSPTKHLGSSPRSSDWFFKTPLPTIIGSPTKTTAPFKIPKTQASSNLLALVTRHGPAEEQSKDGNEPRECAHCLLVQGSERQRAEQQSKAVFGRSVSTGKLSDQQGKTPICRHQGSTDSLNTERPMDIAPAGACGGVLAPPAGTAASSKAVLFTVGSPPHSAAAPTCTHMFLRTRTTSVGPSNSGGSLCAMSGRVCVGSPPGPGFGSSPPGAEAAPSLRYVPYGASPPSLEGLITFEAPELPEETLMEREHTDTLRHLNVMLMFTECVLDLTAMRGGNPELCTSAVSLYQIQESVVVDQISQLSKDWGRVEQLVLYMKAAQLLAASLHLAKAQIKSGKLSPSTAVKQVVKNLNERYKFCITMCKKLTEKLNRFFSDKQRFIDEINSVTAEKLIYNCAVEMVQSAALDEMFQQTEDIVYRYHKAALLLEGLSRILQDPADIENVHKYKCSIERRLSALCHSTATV

[3] = target: T2, SNF-related serine/threonine-protein kinase (Homo sapiens) (UniProt Q9NRH2); test: SNRK(h) Eurofins kinase panel; settings: Compound concentration 1.0 uM
T2 sequence (whole entry): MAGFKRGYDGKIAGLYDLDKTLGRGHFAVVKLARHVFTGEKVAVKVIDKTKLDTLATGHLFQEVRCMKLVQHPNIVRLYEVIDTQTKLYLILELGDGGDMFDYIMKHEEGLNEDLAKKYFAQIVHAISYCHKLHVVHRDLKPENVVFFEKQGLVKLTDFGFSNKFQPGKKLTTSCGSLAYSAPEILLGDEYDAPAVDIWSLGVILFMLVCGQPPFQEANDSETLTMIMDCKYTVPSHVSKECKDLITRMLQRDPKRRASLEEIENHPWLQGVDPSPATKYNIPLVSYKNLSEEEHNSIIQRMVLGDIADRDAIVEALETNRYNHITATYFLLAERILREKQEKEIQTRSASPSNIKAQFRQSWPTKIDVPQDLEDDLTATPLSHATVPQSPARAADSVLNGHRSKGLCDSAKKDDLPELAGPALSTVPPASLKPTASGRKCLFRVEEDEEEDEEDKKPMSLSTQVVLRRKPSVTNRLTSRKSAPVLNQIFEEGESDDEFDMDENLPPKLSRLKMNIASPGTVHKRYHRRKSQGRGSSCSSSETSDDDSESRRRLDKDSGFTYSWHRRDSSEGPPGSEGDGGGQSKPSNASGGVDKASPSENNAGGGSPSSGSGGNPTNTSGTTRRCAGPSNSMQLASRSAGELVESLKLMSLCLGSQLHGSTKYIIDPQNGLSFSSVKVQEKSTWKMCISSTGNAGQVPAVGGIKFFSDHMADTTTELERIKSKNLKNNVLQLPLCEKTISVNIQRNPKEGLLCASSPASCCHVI

[4] = target: mTOR/FKBP12A/FKBP12B (Homo sapiens) (UniProt P62942+P68106+P42345); test: mTOR/FKBP12(h) Eurofins kinase panel; assay type: protein-complex assay; settings: Compound concentration 1.0 uM
Sequence of mTOR/FKBP12A/FKBP12B (Homo sapiens) (P62942 2-108 limits assumed, other chains not shown): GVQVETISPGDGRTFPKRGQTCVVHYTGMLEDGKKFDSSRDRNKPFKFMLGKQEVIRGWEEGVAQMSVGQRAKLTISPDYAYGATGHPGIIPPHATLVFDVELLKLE
Sequence of mTOR/FKBP12A/FKBP12B (Homo sapiens) (P68106 whole entry partner, other chains not shown): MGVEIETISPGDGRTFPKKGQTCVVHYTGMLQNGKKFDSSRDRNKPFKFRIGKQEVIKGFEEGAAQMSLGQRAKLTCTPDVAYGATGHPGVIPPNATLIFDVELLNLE

[5] = target: Serine/threonine-protein kinase Nek6 (Homo sapiens) (UniProt Q9HC98); test: NEK6(h) Eurofins kinase panel; settings: Compound concentration 1.0 uM
Sequence of Serine/threonine-protein kinase Nek6 (Homo sapiens) (Q9HC98 whole entry): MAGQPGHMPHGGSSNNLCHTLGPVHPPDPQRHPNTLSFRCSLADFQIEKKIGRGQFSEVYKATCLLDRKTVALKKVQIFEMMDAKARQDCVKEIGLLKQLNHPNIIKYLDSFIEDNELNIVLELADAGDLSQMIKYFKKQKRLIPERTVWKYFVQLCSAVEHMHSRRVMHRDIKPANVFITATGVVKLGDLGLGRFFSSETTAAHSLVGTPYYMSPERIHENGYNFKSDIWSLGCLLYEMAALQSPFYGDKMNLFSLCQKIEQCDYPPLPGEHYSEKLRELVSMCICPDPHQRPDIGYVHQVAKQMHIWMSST

[6] = system: SNU-398; test: Snu398 cell line Proliferation assay; assay type: functional, Homo sapiens; settings: time 3 day
[7] = target: T3, Mitogen-activated protein kinase kinase kinase 2 (Homo sapiens) (UniProt Q9Y2U5); test: MEKK2(h) Eurofins kinase panel; settings: Compound concentration 1.0 uM
T3 sequence (whole entry): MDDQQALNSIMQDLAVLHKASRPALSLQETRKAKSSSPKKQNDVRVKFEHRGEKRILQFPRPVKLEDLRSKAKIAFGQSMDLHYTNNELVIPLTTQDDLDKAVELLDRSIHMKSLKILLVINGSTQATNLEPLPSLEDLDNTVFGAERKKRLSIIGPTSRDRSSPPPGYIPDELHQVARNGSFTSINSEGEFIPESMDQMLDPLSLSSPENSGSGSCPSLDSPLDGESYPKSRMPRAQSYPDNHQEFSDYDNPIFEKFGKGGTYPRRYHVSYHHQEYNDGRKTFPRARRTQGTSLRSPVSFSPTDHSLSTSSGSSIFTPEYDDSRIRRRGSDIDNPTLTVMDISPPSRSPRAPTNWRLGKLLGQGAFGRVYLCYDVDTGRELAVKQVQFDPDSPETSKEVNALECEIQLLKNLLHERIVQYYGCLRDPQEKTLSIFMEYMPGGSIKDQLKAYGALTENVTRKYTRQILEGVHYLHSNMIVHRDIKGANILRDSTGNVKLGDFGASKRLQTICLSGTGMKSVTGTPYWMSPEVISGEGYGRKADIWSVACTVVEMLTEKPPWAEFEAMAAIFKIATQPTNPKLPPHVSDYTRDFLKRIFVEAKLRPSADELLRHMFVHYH

[8] = target: Serine/threonine-protein kinase PLK3 (Homo sapiens) (UniProt Q9H4B4); test: Plk3(h) Eurofins kinase panel; settings: Compound concentration 1.0 uM
Sequence of Serine/threonine-protein kinase PLK3 (Homo sapiens) (Q9H4B4 whole entry, looked up): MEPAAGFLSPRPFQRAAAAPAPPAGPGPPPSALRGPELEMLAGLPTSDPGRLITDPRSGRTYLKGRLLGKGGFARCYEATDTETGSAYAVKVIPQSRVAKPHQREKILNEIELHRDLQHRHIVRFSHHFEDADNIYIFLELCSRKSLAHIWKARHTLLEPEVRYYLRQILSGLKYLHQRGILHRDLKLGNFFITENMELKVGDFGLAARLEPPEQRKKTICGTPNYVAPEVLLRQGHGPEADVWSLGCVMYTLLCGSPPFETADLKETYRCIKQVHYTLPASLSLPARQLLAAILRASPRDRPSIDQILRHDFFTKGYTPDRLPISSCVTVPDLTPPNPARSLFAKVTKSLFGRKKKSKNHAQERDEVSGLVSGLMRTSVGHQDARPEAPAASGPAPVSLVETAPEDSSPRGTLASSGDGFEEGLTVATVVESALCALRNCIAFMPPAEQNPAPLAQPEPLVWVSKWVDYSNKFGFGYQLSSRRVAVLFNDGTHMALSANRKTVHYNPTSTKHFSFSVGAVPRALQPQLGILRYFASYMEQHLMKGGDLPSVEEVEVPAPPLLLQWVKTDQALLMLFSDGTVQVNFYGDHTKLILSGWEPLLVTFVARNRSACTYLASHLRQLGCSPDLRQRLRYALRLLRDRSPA

[9] = target: Serine/threonine-protein kinase PAK 4 (Homo sapiens) (UniProt O96013); test: PAK4(h) Eurofins kinase panel; settings: Compound concentration 1.0 uM
Sequence of Serine/threonine-protein kinase PAK 4 (Homo sapiens) (O96013 whole entry, looked up): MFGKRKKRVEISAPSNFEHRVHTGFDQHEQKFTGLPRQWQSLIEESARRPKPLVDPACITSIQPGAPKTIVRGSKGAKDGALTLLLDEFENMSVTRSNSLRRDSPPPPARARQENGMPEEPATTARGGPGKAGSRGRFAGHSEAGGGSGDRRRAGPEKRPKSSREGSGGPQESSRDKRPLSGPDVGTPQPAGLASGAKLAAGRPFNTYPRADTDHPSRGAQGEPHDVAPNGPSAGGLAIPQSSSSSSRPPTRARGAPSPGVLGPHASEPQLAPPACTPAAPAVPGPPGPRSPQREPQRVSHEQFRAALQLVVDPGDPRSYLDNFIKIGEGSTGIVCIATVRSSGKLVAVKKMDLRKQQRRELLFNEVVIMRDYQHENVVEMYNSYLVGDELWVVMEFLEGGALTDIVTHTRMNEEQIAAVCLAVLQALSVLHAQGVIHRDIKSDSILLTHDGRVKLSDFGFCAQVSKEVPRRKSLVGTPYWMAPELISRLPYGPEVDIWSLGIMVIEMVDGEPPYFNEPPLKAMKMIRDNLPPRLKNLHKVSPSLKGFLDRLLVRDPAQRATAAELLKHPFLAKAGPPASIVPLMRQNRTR

[10] = target: Serine/threonine-protein kinase pim-3 (Homo sapiens) (UniProt Q86V86); test: Pim-3(h) Eurofins kinase panel; settings: Compound concentration 1.0 uM
[11] = target: Ribosomal protein S6 kinase beta-1 (Homo sapiens) (UniProt P23443); test: p70S6K(h) Eurofins kinase panel; settings: Compound concentration 1.0 uM
Sequence of Ribosomal protein S6 kinase beta-1 (Homo sapiens) (P23443 whole entry, looked up): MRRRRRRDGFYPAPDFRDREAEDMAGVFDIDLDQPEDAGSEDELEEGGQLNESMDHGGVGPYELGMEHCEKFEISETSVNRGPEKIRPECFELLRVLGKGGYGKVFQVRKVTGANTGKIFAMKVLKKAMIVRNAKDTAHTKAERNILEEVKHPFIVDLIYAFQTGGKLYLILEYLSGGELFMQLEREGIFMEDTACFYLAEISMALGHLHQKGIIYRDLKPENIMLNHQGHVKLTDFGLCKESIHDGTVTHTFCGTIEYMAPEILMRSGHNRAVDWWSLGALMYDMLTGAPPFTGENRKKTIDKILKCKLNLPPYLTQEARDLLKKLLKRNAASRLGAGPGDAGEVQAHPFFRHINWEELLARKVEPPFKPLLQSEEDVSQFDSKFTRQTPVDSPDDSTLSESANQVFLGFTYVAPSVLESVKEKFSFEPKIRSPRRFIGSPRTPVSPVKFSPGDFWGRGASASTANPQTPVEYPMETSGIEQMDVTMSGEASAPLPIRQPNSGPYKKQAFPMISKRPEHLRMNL

Sequence of Serine/threonine-protein kinase 25 (Homo sapiens) (O00506 whole entry, looked up): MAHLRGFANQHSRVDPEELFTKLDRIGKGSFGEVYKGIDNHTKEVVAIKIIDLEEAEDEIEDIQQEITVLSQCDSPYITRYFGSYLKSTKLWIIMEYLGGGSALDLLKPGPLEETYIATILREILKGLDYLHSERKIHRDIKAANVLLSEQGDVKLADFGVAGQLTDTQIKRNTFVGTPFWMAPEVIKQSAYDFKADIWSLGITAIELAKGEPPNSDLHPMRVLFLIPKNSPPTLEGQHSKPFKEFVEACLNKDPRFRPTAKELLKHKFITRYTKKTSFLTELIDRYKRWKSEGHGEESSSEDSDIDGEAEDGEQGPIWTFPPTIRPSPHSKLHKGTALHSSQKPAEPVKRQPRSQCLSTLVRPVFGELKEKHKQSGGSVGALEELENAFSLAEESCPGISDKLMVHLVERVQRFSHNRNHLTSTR

CCc1ccccc1C(=O)Nc1n[nH]c2c(C)c(F)c(C3C(C#N)=C(C)N(C)C(C)=C3C#N)cc12 [BAY-3827]
% residual kinase activity [1]: 43% | % residual kinase activity [2]: 84% | % residual kinase activity [3]: 113% | % residual kinase activity [4]: 98% | % residual kinase activity [5]: 94% | Cell Proliferation IC50 [6]: 7.3 µM | % residual kinase activity [7]: 103% | % residual kinase activity [8]: 127% | % residual kinase activity [9]: 91% | % residual kinase activity [10]: 108% | % residual kinase activity [11]: 76%
